# Test results as given in article PMC2994747, “Molecular Characterization of c-Abl/c-Src Kinase Inhibitors Targeted against Murine Tumour Progenitor Cells that Express Stem Cell Markers” (PLoS ONE, 2010).
# Read-outs that look alike come from different tables or passages of the source.
# Legend:
# [1] = target: T1, c-Abl (Homo sapiens, UniProt P00519); assay: Abl filter-binding kinase assay (Abtide, [γ-32P]ATP); format: biochemical; conditions: isolated Abl; calculated from ID50, ATP-competitive; E0 0.005, S0 0.012 µM
# T1 construct: His tag; purchased Upstate (Lake Placid, NY, USA)
# T1 sequence (P00519 whole entry): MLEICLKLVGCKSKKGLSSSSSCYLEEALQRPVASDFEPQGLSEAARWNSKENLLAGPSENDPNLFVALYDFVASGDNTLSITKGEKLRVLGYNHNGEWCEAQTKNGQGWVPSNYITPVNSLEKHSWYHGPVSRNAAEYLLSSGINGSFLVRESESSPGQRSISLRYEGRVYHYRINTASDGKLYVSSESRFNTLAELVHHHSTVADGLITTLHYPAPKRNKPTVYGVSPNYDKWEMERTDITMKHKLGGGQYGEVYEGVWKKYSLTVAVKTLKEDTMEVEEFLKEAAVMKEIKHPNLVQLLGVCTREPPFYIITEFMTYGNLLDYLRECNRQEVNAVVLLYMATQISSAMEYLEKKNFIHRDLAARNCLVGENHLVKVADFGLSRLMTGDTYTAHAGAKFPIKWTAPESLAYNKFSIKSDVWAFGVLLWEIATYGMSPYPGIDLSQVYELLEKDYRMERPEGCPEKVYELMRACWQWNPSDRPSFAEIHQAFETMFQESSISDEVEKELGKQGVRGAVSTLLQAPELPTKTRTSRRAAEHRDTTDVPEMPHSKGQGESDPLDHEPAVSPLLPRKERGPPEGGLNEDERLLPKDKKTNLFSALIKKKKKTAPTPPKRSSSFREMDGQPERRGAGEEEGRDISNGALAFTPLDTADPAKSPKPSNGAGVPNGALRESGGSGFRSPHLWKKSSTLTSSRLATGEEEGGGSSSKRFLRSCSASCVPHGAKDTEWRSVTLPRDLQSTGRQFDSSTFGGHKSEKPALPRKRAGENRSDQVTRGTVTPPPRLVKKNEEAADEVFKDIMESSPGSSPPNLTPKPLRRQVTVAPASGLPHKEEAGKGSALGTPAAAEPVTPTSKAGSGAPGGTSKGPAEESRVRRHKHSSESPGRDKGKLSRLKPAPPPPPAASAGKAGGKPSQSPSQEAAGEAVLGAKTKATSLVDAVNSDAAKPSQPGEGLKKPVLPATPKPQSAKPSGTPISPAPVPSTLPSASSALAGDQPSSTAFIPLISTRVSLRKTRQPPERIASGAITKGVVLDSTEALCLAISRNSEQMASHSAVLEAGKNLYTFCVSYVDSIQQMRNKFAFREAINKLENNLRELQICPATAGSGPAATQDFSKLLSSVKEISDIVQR
# Description: (§1) Baculovirus-produced recombinant purified his-tagged active against human Src and Abl were purchased from Upstate (Lake Placid, NY, USA).
# (§2) Src activity was measured in a filter-binding assay using the Src Assay Kit (Upstate, Lake Placid, NY, USA), according to the manufacturer's protocol, using the specific Src peptide substrate [[…]] in the presence of 0.125 pmol of Src and 0.160 pmol of [γ-^32P]ATP. Abl activity was measured in a filter-binding assay using an Abl specific peptide substrate (Abtide, Upstate). Reaction conditions were (in a final volume of 10 µl): 25 mM Tris-HCl pH 7.5, 1 mM DTT, 0.012 µM [γ-^32P]ATP, 0.022 µM c-Abl. Reactions were incubated 10 min at 30°C.The samples (9 µl) were spotted on paper cellulose filters which were washed according to the manufacturer's protocol. Filter-bound radioactivity was measured by liquid scintillation with a Microbeta-Trilux apparatus (PerkinElmer, Waltham, MA, USA).
# (§3) The ID50 were converted to Ki according to a competitive mechanism with respect to the substrate ATP. […] Since (i) the ATP concentration was limiting, i.e., [ATP], Km(ATP), and (ii) the enzyme concentration was not negligible with respect to the ATP concentration, the classical Cheng-Prusoff relationship was not applicable. Consequently, Ki values were calculated according to [drawing 3] (2) where S0 is the concentration of the competing substrate (ATP) and E0 is the concentration of the enzyme. Each experiment was done in triplicate and mean values were used for the interpolation. Curve fitting was performed with the program GraphPad Prism.
# [2] = tested on: A2C12; assay: MTS cell viability assay; format: cell-based, mouse
# Description: (§4) Three human and eleven murine cancer cell lines were used. The human NSCLC cell line A549 (ACC 107) and the human colorectal carcinoma cell line CaCo2 (ACC 169) were obtained from Deutsche Sammlung von Mikroorganismen und Zellkulturen (DSMZ, Braunschweig, Germany). The human hepatocellular carcinoma cell line HepG2 (HB-8065) was obtained from American Type Culture Collection (Manassas, VA, USA). The 11 murine NSCLC cell lines were established as described recently. Cells were grown in monolayer cultures in DMEM containing 10% foetal calf serum, 4 mmol/l L-glutamine and 2% Penicillin/Streptomycin at 37°C in a humidified atmosphere of 95% air and 5% CO2.
# (§5) Cell culture viability was monitored by CellTiter96® AQueous One Solution Cell Proliferation Assay (Promega GmbH, Mannheim, Germany). The cells were seeded in triplicates in 96-well microtitre plates and treated with the dual kinase inhibitors or vehicle (0.2% DMSO). After 24 h or 96 h of treatment the MTS tetrazolium reagent was added to the cells and incubated for 1 h. Absorbance at 490 nm was assayed with a Victor3 Wallac 1420 Multilabel counter (PerkinElmer, Waltham, MA, USA).
# [3] = tested on: BetaD5; assay: MTS cell viability assay; format: cell-based, mouse
# Description: as §4, §5
# [4] = tested on: GammaA3; assay: MTS cell viability assay; format: cell-based, mouse
# Description: as §4, §5
# [5] = tested on: GammaD12; assay: MTS cell viability assay; format: cell-based, mouse; conditions: MTS
# Description: as §4, §5
# [6] = tested on: A549; assay: MTS cell viability assay; format: cell-based, human
# Description: as §4, §5
# [7] = tested on: CaCo2; assay: MTS cell viability assay; format: cell-based, human
# Description: as §4, §5
# [8] = tested on: HepG2; assay: MTS cell viability assay; format: cell-based, human
# Description: as §4, §5
# [9] = tested on: A2C12; assay: Cell cycle analysis by flow cytometry; format: cell-based, mouse; conditions: IC50 concentration, 96 h
# Description: (§6) CycleTEST™ PLUS DNA Reagent Kit (Becton Dickinson GmbH, Heidelberg, Germany) for cell cycle analysis was used, according to the instructions of the manufacturer. Briefly, the cells were harvested with trypsin, washed with PBS, and resuspended in CycleTEST Buffer. The cells were centrifuged and resuspended in solution A. After incubation for 10 min at room temperature, solution B was added and incubated. After adding solution C, the samples were incubated at 4°C protected from light. The samples were stored on ice and protected from light until analysis by FACScan flow cytometer (Becton Dickinson GmbH, Heidelberg, Germany).
# [10] = tested on: GammaA3; assay: Cell cycle analysis by flow cytometry; format: cell-based, mouse; conditions: IC50 concentration, 96 h
# Description: as §6
# [11] = tested on: GammaD12; assay: Cell cycle analysis by flow cytometry; format: cell-based, mouse; conditions: IC50 concentration, 96 h
# Description: as §6
# [12] = tested on: A549; assay: Cell cycle analysis by flow cytometry; format: cell-based, human; conditions: IC50 concentration, 96 h
# Description: as §6
# [13] = tested on: CaCo2; assay: Cell cycle analysis by flow cytometry; format: cell-based, human; conditions: IC50 concentration, 96 h
# Description: as §6
# [14] = target: T2, c-Src (Homo sapiens, UniProt P12931); assay: Src filter-binding kinase assay (Src Assay Kit); format: biochemical; conditions: isolated Src; calculated from ID50, ATP-competitive; E0 0.005, S0 0.012 µM
# T2 construct: His tag; purchased Upstate (Lake Placid, NY, USA)
# T2 sequence (P12931 whole entry): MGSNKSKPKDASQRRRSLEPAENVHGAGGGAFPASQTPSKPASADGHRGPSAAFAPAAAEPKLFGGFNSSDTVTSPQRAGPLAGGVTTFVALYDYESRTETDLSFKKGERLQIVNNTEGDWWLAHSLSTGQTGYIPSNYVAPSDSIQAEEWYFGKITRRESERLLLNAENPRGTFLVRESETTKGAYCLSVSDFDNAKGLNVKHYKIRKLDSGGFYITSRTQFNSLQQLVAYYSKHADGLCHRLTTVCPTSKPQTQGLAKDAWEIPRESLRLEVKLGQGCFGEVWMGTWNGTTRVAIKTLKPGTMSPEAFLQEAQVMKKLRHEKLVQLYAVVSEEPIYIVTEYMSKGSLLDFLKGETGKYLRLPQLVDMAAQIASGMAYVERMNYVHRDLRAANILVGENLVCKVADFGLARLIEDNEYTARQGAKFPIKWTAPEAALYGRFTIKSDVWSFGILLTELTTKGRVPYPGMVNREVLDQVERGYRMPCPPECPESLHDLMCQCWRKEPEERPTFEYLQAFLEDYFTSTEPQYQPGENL
# Description: as §1, §2, §3
# [15] = tested on: BetaD5; assay: Cell cycle analysis by flow cytometry; format: cell-based, mouse; conditions: IC50 concentration, 96 h
# Description: as §6
# [16] = tested on: HepG2; assay: Cell cycle analysis by flow cytometry; format: cell-based, human; conditions: IC50 concentration, 96 h
# Description: as §6
# [17] = 24 h, read-out: Calculated IC50 after single treatment for 24 h
# [18] = 96 h, read-out: Calculated IC50 after daily treatment for 96 h
# [19] = Mus musculus, 24 h, read-out: Calculated IC50 after single treatment for 24 h
# [20] = Mus musculus, 96 h, read-out: Calculated IC50 after daily treatment for 96 h
structure (smiles),measurement,setting,value
CSc1nc(NCCc2ccccc2)c2cnn(C=Cc3ccccc3)c2n1 [Si40],Ki,[1],0.45 µM
same,IC50,[2]; [17],> 100 µM
same,IC50,[2]; [18],7 ± 0.5 µM
same,IC50,[3]; [17],43.6 ± 3.6 µM
same,IC50,[3]; [18],12.9 ± 2.9 µM
same,IC50,[4]; [17],> 100 µM
same,IC50,[4]; [18],> 20 µM
same,IC50,[5]; [17],26 ± 3 µM
same,IC50,[5]; [18],12.7 ± 0.4 µM
same,IC50,[6]; [17],> 100 µM
same,IC50,[6]; [18],16.2 ± 2.1 µM
same,IC50,[7]; [17],> 100 µM
same,IC50,[7]; [18],0.4 ± 0.1 µM
same,IC50,[8]; [17],> 100 µM
same,Cells in G1 phase,[9],75.7%
same,Cells in G2 phase,[9],9.8%
same,Cells in S phase,[9],14.6%
same,Cells in G1 phase,[10],53.4%
same,Cells in G2 phase,[10],15.4%
same,Cells in S phase,[10],31.3%
same,Cells in G1 phase,[11],28.4%
same,Cells in G2 phase,[11],2.7%
same,Cells in S phase,[11],68.9%
same,Cells in G1 phase,[12],81%
same,Cells in G2 phase,[12],3.8%
same,Cells in S phase,[12],15.2%
same,Cells in G1 phase,[13],52.5%
same,Cells in G2 phase,[13],10.3%
same,Cells in S phase,[13],37.2%
BrC(Cn1ncc2c(N3CCOCC3)ncnc21)c1ccccc1 (centres unmarked) [Si51],Ki,[1],0.22 µM
same,IC50,[2]; [17],> 100 µM
same,IC50,[2]; [18],> 20 µM
same,IC50,[3]; [17],> 100 µM
same,IC50,[3]; [18],> 20 µM
same,IC50,[4]; [17],> 100 µM
same,IC50,[4]; [18],> 20 µM
same,IC50,[5]; [17],> 100 µM
same,IC50,[5]; [18],> 20 µM
same,IC50,[6]; [17],> 100 µM
same,IC50,[6]; [18],> 20 µM
same,IC50,[7]; [17],> 100 µM
same,IC50,[7]; [18],> 20 µM
same,IC50,[8]; [17],> 100 µM
Cc1nc(Nc2cccc(F)c2)c2cnn(CC(Cl)c3ccccc3)c2n1 (centres unmarked) [Si166],Ki,[1],0.151 µM
same,Ki,[14],0.338 µM
same,IC50,[2]; [19],16.6 ± 1.2 µM
same,IC50,[2]; [20],11.5 ± 0.5 µM
same,IC50,[3]; [19],14 ± 2.1 µM
same,IC50,[3]; [20],10.6 ± 0.7 µM
same,IC50,[4]; [19],17 ± 2.3 µM
same,IC50,[4]; [20],19 ± 1.3 µM
same,IC50,[5]; [19],18.1 ± 1.4 µM
same,IC50,[5]; [20],15.9 ± 1.4 µM
same,IC50,"[6]; Homo sapiens, A549, 24 h, 24 h, read-out: Calculated IC50 after single treatment for 24 h",20.2 ± 2.5 µM
same,IC50,"[6]; Homo sapiens, A549, 96 h, 96 h, read-out: Calculated IC50 after daily treatment for 96 h",8.3 ± 0.3 µM
same,IC50,"[7]; Homo sapiens, Caco-2, 24 h, read-out: Calculated IC50 after single treatment for 24 h",37.7 ± 2.4 µM
same,IC50,"[7]; Homo sapiens, Caco-2, 96 h, read-out: Calculated IC50 after daily treatment for 96 h",6 ± 0.7 µM
same,IC50,"[8]; Homo sapiens, 24 h, read-out: Calculated IC50 after single treatment for 24 h",37.7 ± 2.4 µM
same,IC50,"[8]; Homo sapiens, 96 h, read-out: Calculated IC50 after daily treatment for 96 h",10.8 ± 0.9 µM
same,Cells in G1 phase,[9],56.1%
same,Cells in G2 phase,[9],13.6%
same,Cells in S phase,[9],30.4%
same,Cells in G1 phase,[15],68.3%
same,Cells in G2 phase,[15],20.8%
same,Cells in S phase,[15],10.9%
same,Cells in G1 phase,[10],74.4%
same,Cells in G2 phase,[10],14.1%
same,Cells in S phase,[10],11.5%
same,Cells in G1 phase,[11],39.5%
same,Cells in G2 phase,[11],10.2%
same,Cells in S phase,[11],50.3%
same,Cells in G1 phase,[12],63.2%
same,Cells in G2 phase,[12],6.6%
same,Cells in S phase,[12],30.2%
same,Cells in G1 phase,[13],56.7%
same,Cells in G2 phase,[13],17.8%
same,Cells in S phase,[13],25.5%
same,Cells in G1 phase,[16],54.6%
same,Cells in G2 phase,[16],9.6%
same,Cells in S phase,[16],35.8%
